Test in all cases: relative viability (nuclei count vs DMSO), 5 days (fraction); higher = more cells survive
Compound in one assay: COc1cc2c(Oc3ccc4[nH]c(C)cc4c3F)ncnc2cc1OCCCN1CCCC1 [Cediranib]
The gist of the method:
(§1)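 Only plates meeting two conditions passed: control CV below 25% and at least one doubling. Lung cancer cell lines, kept overnight at 37 °C in 1536-well plates, were pinned with five library-drug doses (not always all listed) √10 apart on vehicle-anchored plates and grown 5 days without medium change. A one-step fix, permeabilisation and Hoechst stain preceded 4× imaging and MetaXpress nuclear counting. Viability equals treated-well nuclei divided by vehicle-well nuclei, as the median over plates.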

Compound in the next assay: Nc1ncn([C@H]2C[C@H](O)[C@@H](CO)O2)c(=O)n1 [Decitabine]
The gist of the method:
as §1

Compound in a further assay: O=C(C[C@H]1NCCC[C@@H]1O)Cn1cnc2cc(Br)c(Cl)cc2c1=O (racemic) [Halofuginone]
In outline:
as §1

In the case of UMC-11, the relative viability with Cediranib (0.04 µM) was 0.989; with Cediranib (0.1265 µM), 0.748; in the assay with Cediranib (0.4 µM), 0.88; with Cediranib (1.265 µM), 0.69; in the assay with Cediranib (4 µM), 0.92; in the assay with Decitabine (0.04 µM), 0.914. Besides, the relative viability with Decitabine (0.1265 µM) was 0.8; with Decitabine (0.4 µM), 0.536; in the assay with Decitabine (1.265 µM), 0.387; in the assay with Decitabine (2 µM, anchor plate), 0.638; in the assay with Decitabine (4 µM) it was 0.419; with Halofuginone (0.001 µM), 1.12. Moreover, the relative viability amounted to 0.984 with Halofuginone (0.003162 µM), 0.97 with Halofuginone (0.01 µM), 0.901 with Halofuginone (0.03162 µM) and 0.702 in the assay with Halofuginone (0.1 µM).
